Laboratory results as given in patent US20160120882A1, “COMPOSITION HAVING A BENEFICIAL EFFECT ON THE CARDIOVASCULAR SYSTEM” (ESSENTIAL IP BV, priority 2013, published 2016).
Where “and” joins values, the source holds several entries; their conditions need not be identical. Equal entries are not always repeated. Structures can show the parent of a compound that is named as a salt. Where two headings read alike, the source gives them in different places.

Tests used:
[1] = clinical studies; cited from earlier work
[2] = cited from earlier work
CYP1A1 = biological target: T1, CYP1A1 (Homo sapiens, UniProt P04798); details: in vitro; cited from earlier work
T1 sequence (P04798 1-512): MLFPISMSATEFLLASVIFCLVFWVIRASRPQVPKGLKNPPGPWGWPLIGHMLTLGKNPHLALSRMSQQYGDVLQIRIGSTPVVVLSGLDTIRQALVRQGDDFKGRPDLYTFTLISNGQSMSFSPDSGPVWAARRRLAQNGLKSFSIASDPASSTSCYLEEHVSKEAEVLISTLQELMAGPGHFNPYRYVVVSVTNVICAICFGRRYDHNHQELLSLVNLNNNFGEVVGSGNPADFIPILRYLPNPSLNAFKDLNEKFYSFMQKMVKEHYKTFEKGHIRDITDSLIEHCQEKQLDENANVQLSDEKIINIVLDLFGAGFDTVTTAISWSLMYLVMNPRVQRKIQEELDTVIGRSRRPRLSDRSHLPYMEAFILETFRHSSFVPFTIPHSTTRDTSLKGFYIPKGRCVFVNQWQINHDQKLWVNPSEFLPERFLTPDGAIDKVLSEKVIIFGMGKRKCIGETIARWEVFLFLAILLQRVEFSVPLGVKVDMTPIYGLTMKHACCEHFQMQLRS

[3] = cyclosporine 3 mg/kg twice daily; berberine 0.2 g three times a day for three months; cited from earlier work
[4] = subjects with high blood pressure; cited from earlier work
[5] = various clinical trial data; cited from earlier work
[6] = calculated from the NOAEL in rats; cited from earlier work
[7] = cited from earlier work; remark: listed apart in the source
[8] = lycopene group versus 30% in control group; cited from earlier work
[9] = cited from earlier work; remark: listed apart in the source
[10] = lycopene from all sources (EFSA, 2008); cited from earlier work
[11] = test system: human monocytic THP-1 cells; test: uptake of fluorescently labeled oxLDL by PMA-stimulated THP-1 macrophages (foam cell formation model), FACS; assay type: cell-based; details: for effect on the uptake of oxLDL: PMA-stimulated THP-1 cells, FIG. 1; for oxLDL uptake, Average: average of 6 independent measurements; for oxLDL uptake, Average / oxLDL uptake [Median Fluorescence intensity]: VitD3 100 nM, lycopene 0.5 uM, monacolin K 10 uM, control average 12617; for oxLDL uptake [Median Fluorescence intensity]: single measurement (1-6), 24 h pre-treatment, then 10 ug/ml Dil-oxLDL 24 h
From the text: We employed a model for measuring the oxLDL uptake by macrophages, a known and accepted model for determining foam cell formation, which in turn is an accepted measure for plaque formation as well as for the development of atherosclerosis and decreasing vascular health in general. Our experimental data are therefore relevant for determining the beneficial effects of several active ingredients on the cardiovascular system.
More in detail, we stimulated human monocytic THP-1 cells [Tsuchiya S, Yamabe M, Yamaguchi Y, Kobayashi Y, Konno T, Tada K (August 1980). “Establishment and characterization of a human acute monocytic leukemia cell line (THP-1)”. Int. J. Cancer 26 (2): 171-6. doi:10.1002/ijc.2910260208.] with phorbol 12-myristate 13-acetate (PMA) and contacted or pre-treated the cells with a number of active ingredients. After 24 hours of pre-treatment, the cells were contacted with or exposed to fluorescently labeled oxLDL and uptake of oxLDL was determined after 24 hours (see example 1).
THP-1 cells (P7) were plated in a 96-wells suspension culture plate at a density of 1*10̂6 cells/ml whereby 1*10̂5 cells were plated. Cells were cultured in IMDM phenol-red free medium (Invitrogen, Eugene, Oreg., USA) enriched for 10% fetal calf serum (FCS), 100 U/ml penicillin, 100 μg/ml streptomycin and 2 mM L-glutamin. Monocytes were differentiated with 50 ng/ml phorbol 12-myristate 13-acetate (PMA) (Sigma Aldrich, St. Louis, Mo. USA) for 48 h where after medium was replaced. After differentiation, macrophages were cultured in the presence or absence of different compounds for 24h (Table 2). After pre-treatment, cells were exposed to 10 ug/ml Dil-labeled oxidized lipoprotein (oxLDL) (Biotrend Chemikalien GmbH, Cologne, Germany) for another 24h at 37° C. to enable foam cell formation in the absence of presence of the different compounds (FIG. 1). After this, cells were washed with PBS (−/−) (PAA, Pitscataway, N.J., USA) and detached by Lidocaine hydrochloride (4 mg/ml) EDTA (10 mM) solution (Sigma Aldrich, St. Louis, Mo. USA)/(Invitrogen, Eugene, Oreg., USA). Cells were washed two more times with FACS buffer (PBS containing 0.5% BSA and 0.2 mM EDTA) and transferred to a 96 U-shaped plate for FACS analysis. Analysis was performed on the FACS Canto II HTS and 1,1′-dioctadecyl-3,3,3′3′-tetra-methylindocyanide percholorate (Dip-labeled oxLDL uptake was measured in PE-A channel.
Macrophages were exposed to vitamin D3, lycopene and/or monacolin K and the inhibitory effect of oxLDL uptake of these three active ingredients was measured. The inhibitory potentiol of each compound and composition was expressed as the difference between the measurements obtained with and without the compound or composition.

[12] = daily intake of Red Yeast Rice containing 10 mg monacolin K; cited from earlier work
[13] = rat, in vivo; cited from earlier work
[14] = mouse, in vivo; cited from earlier work
[15] = per increase in dietary intake of vitamin K2 by 10 microgram; 8 years, 480 cardiovascular events; cited from earlier work
[16] = high versus low dietary intake of vitamin K2; cited from earlier work
[17] = subgroup of trials using lycopene dosages of >=25 mg daily

COc1ccc2cc3[n+](cc2c1OC)CCc1cc2c(cc1-3)OCO2 [Berberine]
reduction of total cholesterol [1]: 15-18% | reduction of fasting plasma insulin ([2]; P<0.001): 28.1% | reduction of insulin resistance index ([2]; P<0.001): 44.7% | HBA1c after treatment ([2]; decreased from 8.1%): 7.3% | effect on CYP1A1 (CYP1A1): inhibit CYP1A1 | increase of mean cyclosporine A Area under the Curve (AUC) [3]: 34.5%

COC1=C(OC)C(=O)C(C/C=C(\C)CC/C=C(\C)CC/C=C(\C)CC/C=C(\C)CC/C=C(\C)CC/C=C(\C)CC/C=C(\C)CC/C=C(\C)CC/C=C(\C)CCC=C(C)C)=C(C)C1=O [CoQ10, Coenzyme Q10]
mean decrease in diastolic blood pressure [4]: 7-10 mmHg | mean decrease in systolic blood pressure [4]: 11-17 mmHg | observed safety level (OSL) [5]: 1200 mg/day/person | acceptable daily intake (ADI) [6]: 12 mg/kg/day

CC(C)=CCC/C(C)=C/C=C/C(C)=C/C=C/C(C)=C/C=C/C=C(C)/C=C/C=C(C)/C=C/C=C(\C)CCC=C(C)C [Lycopene]
Systolic blood pressure lowering ([7]; Table 1 summary range): 5.6-9.5 mmHg | systolic blood pressure reducing effect ([7]; meta-analysis of 4 studies): 5.60 mmHg | systolic blood pressure reduction ([7]; subgroup of trials with high blood pressure at baseline (SBP >=140 mm Hg)): 9.35 mmHg | incidence of prostate cancer [8]: 10% | HDL levels ([9]; meta-analysis of 12 studies): remained unchanged | LDL cholesterol lowering [9, 17]: LDL cholesterol lowering of 10% | total serum cholesterol lowering [9, 17]: 10% | LDL cholesterol lowering ([9]; subgroup of trials using lycopene dosages of >=25 mg daily, listed as lycopene): 10% | acceptable daily intake (ADI) [10]: 0.5 mg/kg/day | effect on the uptake of oxLDL [11]: slightly inhibited | oxLDL uptake, Average [11]: 11405 Median Fluorescence intensity | oxLDL uptake [Median Fluorescence intensity] [11]: 9832 Median Fluorescence intensity and 11500 Median Fluorescence intensity and 12200 Median Fluorescence intensity and 11900 Median Fluorescence intensity and 11300 Median Fluorescence intensity and 11700 Median Fluorescence intensity

CC[C@H](C)C(=O)O[C@H]1C[C@@H](C)C=C2C=C[C@H](C)[C@H](CC[C@@H]3C[C@@H](O)CC(=O)O3)[C@H]21 [Monacolin K]
LDL cholesterol lowering [12]: LDL cholesterol lowering of 7-25% | lowering of triglyceride blood levels [12]: by 10-44% | relative increase of HDL [12]: Relative increase of HDL up to 17% | effect on the uptake of oxLDL [11]: no effect | oxLDL uptake, Average [11]: 12667 Median Fluorescence intensity | oxLDL uptake [Median Fluorescence intensity] [11]: 14300 Median Fluorescence intensity and 11900 Median Fluorescence intensity and 11700 Median Fluorescence intensity and 11800 Median Fluorescence intensity and 14400 Median Fluorescence intensity

C=C1CC[C@H](O)C/C1=C/C=C1\CCC[C@]2(C)[C@@H]([C@H](C)CCCC(C)C)CC[C@@H]12 [VitD3, Vitamin D3]
effect on the uptake of oxLDL [11]: no effect | oxLDL uptake, Average [11]: 12300 Median Fluorescence intensity | oxLDL uptake [Median Fluorescence intensity] [11]: 13100 Median Fluorescence intensity and 13200 Median Fluorescence intensity and 12600 Median Fluorescence intensity and 10900 Median Fluorescence intensity

COc1ccc2cc3[n+](cc2c1OC)CCc1cc2c(cc1-3)OCO2 [berberine HCL]
LD50 [13]: > 15000 mg/kg | LD50 [14]: > 29586 mg/kg

CC(C)=CCC/C(C)=C/CC/C(C)=C/CC/C(C)=C/CC1=C(C)C(=O)c2ccccc2C1=O [vitamin K2, Vitamin K2]
risk reduction [15]: 9% | less calcification of the aorta [16]: 52% | less myocardial infarctions [16]: 57% | less overall mortality [16]: 26%
